Measurements as given in patent US12268674B2, “Mi-2β inhibitor as an immunotherapy agent” (BioVentures, LLC, priority 2021, dated 2025).

Key:
Assay in all cases: ATPase profile (ATP acyl phosphate probe)
Assay type in all cases: binding
ABCB10 = molecular target: T1, ABCB10 (Homo sapiens, UniProt Q9NRK6); conditions: ABCB10, SEQ ID NO: 2, ATP BS
T1 construct: to get the native cell lysate; host or cells: A375 cell lysate

ABCB7 = molecular target: T2, ABCB7 (Homo sapiens, UniProt O75027); conditions: ABCB7, SEQ ID NO: 4, ATP BS
T2 construct: to get the native cell lysate; host or cells: A375 cell lysate

APRT = molecular target: T3, APRT (Homo sapiens, UniProt P07741); conditions: SEQ ID NO: 40, ATP BS
T3 construct: to get the native cell lysate; host or cells: A375 cell lysate
T3 sequence (P07741 whole entry): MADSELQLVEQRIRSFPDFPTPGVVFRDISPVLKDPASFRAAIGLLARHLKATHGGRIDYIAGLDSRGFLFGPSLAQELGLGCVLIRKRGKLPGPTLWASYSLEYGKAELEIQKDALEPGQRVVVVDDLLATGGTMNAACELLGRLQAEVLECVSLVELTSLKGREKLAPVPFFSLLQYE

ATIC = molecular target: T4, ATIC (Homo sapiens, UniProt P31939); conditions: SEQ ID NO: 47, ATP BS
T4 construct: to get the native cell lysate; host or cells: A375 cell lysate

CCT5 = molecular target: T5, CCT5 (Homo sapiens, UniProt P48643); conditions: CCT5, SEQ ID NO: 54, ATP BS
T5 construct: to get the native cell lysate; host or cells: A375 cell lysate

CCT7 = molecular target: T6, CCT7 (Homo sapiens, UniProt Q99832); conditions: CCT7, SEQ ID NO: 55, ATP BS
T6 construct: host or cells: A375 cell lysate

FDPS = molecular target: T7, FDPS (Homo sapiens, UniProt P14324); conditions: SEQ ID NO: 78, ATP BS
T7 construct: endogenous in cells; host or cells: A375 cell lysate
T7 sequence (P14324 whole entry): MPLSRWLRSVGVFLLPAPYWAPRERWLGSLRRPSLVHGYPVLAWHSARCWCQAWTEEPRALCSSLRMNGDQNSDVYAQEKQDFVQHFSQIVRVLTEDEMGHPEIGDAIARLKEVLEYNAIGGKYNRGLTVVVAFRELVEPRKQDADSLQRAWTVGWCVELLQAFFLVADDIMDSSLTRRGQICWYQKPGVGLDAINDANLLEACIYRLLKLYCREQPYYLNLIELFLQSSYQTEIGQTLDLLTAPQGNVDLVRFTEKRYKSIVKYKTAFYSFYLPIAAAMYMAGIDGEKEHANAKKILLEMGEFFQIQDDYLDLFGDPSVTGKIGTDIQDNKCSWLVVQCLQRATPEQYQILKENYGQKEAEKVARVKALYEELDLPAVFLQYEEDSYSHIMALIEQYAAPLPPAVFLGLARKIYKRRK

GART = molecular target: T8, GART (Homo sapiens, UniProt P22102)
T8 construct: endogenous in cells; host or cells: A375 cell lysate
T8 sequence (P22102 1-1010): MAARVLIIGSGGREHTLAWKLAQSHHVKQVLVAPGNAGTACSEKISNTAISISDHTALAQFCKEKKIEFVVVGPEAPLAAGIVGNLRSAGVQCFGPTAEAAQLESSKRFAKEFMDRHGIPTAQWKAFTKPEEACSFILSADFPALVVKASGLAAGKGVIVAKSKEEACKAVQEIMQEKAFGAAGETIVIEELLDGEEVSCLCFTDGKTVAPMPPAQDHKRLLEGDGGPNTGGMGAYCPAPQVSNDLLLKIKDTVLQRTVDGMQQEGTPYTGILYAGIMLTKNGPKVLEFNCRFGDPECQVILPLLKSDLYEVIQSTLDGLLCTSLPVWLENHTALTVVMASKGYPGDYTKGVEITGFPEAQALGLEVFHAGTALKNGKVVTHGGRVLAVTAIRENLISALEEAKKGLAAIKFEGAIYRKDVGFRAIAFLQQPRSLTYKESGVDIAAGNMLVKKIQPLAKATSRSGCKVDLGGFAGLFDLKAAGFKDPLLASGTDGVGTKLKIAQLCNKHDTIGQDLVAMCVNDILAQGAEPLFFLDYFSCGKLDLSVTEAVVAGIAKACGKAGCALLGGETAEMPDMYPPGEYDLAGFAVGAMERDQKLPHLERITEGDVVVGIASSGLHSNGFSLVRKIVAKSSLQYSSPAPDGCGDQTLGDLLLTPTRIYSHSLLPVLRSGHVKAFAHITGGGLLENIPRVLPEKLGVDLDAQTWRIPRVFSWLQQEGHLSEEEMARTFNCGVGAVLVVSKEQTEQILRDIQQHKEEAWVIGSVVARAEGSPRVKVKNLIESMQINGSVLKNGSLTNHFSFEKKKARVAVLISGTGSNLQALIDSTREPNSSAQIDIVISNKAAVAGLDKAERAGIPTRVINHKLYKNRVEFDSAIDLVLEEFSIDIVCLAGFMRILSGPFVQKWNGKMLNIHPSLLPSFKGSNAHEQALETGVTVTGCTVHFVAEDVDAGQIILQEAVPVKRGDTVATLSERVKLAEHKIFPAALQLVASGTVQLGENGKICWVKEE

HSP60 = molecular target: T9, HSP60 (Homo sapiens, UniProt P10809); conditions: HSP60, SEQ ID NO: 94, ATP BS
T9 construct: to get the native cell lysate; endogenous in cells; host or cells: A375
T9 sequence (P10809 27-573): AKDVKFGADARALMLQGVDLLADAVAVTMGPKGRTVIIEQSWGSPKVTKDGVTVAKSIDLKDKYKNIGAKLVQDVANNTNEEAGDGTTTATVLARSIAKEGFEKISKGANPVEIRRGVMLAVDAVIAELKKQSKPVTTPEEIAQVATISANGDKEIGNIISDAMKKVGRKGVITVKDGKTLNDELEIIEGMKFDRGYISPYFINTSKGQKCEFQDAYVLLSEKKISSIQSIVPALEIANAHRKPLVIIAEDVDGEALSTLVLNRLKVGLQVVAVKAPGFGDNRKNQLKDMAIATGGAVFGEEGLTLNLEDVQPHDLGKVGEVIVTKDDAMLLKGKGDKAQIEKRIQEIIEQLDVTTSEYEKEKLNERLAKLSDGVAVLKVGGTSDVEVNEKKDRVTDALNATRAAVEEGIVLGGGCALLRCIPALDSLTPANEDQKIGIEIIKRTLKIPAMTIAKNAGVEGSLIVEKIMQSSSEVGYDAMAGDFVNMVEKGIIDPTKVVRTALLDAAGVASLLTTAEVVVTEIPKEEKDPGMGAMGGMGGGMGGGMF

HSP90AA = molecular target: T10, HSP90AA (Homo sapiens, UniProt P07900); conditions: SEQ ID NO: 95, ATP BS
T10 construct: to get the native cell lysate; endogenous in cells; host or cells: A375

KIAA0564 = molecular target: T11, KIAA0564 (Homo sapiens, UniProt A3KMH1); conditions: KIAA0564, SEQ ID NO: 113, ATP BS
T11 construct: to get the native cell lysate; endogenous in cells; host or cells: A375

NADSYN1 = molecular target: T12, NADSYN1 (Homo sapiens, UniProt Q6IA69); conditions: NADSYN1, SEQ ID NO: 130, ATP BS
T12 construct: to get the native cell lysate; endogenous in cells; host or cells: A375

PFAS = molecular target: T13, PFAS (Homo sapiens, UniProt O15067); conditions: SEQ ID NO: 157, ATP BS
T13 construct: to get the native cell lysate; endogenous in cells; host or cells: A375 cell lysate
T13 sequence (O15067 whole entry): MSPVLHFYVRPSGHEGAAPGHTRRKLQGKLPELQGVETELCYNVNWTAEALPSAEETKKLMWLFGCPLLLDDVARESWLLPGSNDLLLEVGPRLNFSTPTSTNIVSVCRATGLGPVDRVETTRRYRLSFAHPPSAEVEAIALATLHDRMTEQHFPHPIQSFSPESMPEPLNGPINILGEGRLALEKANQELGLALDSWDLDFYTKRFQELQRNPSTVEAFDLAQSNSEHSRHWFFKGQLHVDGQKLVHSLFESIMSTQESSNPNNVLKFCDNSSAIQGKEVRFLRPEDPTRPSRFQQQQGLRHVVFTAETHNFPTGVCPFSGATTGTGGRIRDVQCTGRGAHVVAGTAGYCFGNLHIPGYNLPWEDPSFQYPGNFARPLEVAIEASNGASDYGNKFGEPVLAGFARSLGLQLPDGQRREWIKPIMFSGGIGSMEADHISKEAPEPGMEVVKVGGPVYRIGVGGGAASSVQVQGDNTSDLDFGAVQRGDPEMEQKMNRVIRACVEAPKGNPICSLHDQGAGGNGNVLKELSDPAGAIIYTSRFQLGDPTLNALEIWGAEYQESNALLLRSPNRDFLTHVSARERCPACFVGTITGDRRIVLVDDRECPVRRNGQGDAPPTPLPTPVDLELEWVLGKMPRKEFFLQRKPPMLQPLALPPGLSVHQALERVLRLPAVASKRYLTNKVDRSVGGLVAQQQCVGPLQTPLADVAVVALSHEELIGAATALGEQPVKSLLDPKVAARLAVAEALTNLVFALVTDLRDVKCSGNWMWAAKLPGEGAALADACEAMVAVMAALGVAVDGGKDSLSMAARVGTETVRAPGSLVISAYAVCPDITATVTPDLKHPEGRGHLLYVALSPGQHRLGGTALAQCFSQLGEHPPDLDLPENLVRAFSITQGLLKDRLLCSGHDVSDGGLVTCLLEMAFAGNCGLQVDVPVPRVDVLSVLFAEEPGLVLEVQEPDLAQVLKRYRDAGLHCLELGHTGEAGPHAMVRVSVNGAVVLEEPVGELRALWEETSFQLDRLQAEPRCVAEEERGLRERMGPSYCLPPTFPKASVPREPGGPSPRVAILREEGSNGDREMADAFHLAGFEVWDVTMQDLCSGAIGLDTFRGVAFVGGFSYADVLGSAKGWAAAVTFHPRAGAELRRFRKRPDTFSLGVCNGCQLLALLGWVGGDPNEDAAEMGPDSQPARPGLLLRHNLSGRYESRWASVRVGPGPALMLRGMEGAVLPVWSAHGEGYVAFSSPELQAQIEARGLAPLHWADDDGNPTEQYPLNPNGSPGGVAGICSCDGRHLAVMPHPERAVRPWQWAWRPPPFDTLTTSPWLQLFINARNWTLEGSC

PGK1 = molecular target: T14, PGK1 (Homo sapiens, UniProt P00558); conditions: PGK1, SEQ ID NO: 160, ATP BS
T14 construct: to get the native cell lysate; endogenous in cells; host or cells: A375 cell lysate

PMVK = molecular target: T15, PMVK (Homo sapiens, UniProt Q15126); conditions: SEQ ID NO: 163, ATP BS
T15 construct: to get the native cell lysate; endogenous in cells; host or cells: A375 cell lysate

PSMC1 = molecular target: T16, PSMC1 (Homo sapiens, UniProt P62191); conditions: PSMC1, SEQ ID NO: 173, ATP BS
T16 construct: endogenous in cells; host or cells: A375 cell lysate

PSMC4 = PSMC4 (Homo sapiens, UniProt P43686); conditions: PSMC4, SEQ ID NO: 176, ATP BS
RAD17 = molecular target: T17, RAD17 (Homo sapiens, UniProt O75943); conditions: RAD17, SEQ ID NO: 181, ATP BS
T17 construct: to get the native cell lysate; endogenous in cells; host or cells: A375 cell lysate

RFC2 = molecular target: T18, RFC2 (Homo sapiens, UniProt P35250); conditions: RFC2, SEQ ID NO: 184, ATP BS
T18 construct: to get the native cell lysate; endogenous in cells; host or cells: A375 cell lysate

RFC5 = molecular target: T19, RFC5 (Homo sapiens, UniProt P40937); conditions: RFC5, SEQ ID NO: 186, ATP BS
T19 construct: to get the native cell lysate; endogenous in cells; host or cells: A375 cell lysate

SMC4 = molecular target: T20, SMC4 (Homo sapiens, UniProt Q9NTJ3); conditions: SMC4, SEQ ID NO: 195, ATP BS
T20 construct: to get the native cell lysate; endogenous in cells; host or cells: A375 cell lysate
T20 sequence (Q9NTJ3 whole entry): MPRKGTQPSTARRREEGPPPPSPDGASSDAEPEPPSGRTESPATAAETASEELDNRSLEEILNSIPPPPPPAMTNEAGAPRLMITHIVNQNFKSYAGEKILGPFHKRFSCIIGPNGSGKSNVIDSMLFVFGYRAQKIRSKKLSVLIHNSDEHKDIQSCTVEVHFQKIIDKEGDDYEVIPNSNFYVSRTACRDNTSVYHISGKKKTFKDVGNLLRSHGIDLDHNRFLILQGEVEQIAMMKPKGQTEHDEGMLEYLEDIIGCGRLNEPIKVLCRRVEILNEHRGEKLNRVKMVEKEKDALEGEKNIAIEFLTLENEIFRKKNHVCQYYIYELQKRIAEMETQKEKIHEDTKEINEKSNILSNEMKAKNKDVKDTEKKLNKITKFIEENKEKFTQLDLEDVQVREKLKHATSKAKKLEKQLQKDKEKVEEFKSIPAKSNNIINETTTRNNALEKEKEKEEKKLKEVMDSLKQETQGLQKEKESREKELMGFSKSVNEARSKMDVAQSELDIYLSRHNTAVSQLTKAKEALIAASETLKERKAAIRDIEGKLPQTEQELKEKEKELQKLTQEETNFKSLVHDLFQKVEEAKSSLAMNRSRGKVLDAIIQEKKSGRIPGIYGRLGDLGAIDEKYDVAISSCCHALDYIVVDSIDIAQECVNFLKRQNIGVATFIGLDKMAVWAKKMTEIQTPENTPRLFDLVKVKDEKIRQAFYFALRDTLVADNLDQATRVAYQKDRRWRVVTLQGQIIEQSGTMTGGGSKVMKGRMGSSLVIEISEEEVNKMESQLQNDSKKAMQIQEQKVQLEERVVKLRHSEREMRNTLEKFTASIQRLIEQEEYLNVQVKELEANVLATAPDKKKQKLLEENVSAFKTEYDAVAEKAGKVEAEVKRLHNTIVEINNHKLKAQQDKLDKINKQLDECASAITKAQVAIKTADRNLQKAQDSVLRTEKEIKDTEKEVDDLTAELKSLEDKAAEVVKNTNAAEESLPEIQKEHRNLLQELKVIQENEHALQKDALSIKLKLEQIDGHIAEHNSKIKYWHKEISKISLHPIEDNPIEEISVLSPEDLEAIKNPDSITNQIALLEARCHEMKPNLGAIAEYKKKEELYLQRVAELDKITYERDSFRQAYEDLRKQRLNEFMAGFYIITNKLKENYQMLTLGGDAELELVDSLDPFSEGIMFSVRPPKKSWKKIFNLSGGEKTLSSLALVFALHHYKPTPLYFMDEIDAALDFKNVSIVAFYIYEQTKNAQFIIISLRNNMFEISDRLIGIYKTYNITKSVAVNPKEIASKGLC
T20 sequence (O95347 whole entry partner): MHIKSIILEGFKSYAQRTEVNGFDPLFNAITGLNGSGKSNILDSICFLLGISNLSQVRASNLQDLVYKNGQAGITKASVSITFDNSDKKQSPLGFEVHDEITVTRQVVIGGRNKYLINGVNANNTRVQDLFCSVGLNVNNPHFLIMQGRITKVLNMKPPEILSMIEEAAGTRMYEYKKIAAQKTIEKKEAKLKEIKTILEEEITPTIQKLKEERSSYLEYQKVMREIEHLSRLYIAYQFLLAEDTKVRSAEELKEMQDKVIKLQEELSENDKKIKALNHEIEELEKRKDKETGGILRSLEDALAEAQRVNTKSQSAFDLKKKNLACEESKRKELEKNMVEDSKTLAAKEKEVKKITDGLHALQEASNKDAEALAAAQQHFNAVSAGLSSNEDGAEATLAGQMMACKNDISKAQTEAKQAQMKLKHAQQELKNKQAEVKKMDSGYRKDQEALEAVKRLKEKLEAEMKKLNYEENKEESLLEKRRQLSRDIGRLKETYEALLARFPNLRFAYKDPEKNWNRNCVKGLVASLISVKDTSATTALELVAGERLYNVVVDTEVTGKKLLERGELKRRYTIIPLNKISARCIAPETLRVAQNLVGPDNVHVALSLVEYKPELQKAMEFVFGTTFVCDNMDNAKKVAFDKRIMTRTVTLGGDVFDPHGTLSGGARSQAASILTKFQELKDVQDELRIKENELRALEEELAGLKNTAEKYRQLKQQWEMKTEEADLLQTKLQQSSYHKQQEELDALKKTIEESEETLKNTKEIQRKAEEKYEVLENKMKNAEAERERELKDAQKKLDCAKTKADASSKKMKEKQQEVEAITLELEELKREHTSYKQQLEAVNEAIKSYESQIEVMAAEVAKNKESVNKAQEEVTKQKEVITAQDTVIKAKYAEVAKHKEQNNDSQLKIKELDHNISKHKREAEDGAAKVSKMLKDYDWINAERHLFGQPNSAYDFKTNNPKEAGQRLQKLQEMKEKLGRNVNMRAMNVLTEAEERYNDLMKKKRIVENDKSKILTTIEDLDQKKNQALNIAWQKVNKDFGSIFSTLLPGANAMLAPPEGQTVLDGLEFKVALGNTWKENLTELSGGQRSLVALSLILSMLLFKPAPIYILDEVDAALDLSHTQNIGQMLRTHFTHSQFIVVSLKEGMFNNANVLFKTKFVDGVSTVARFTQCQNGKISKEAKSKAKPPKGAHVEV

Q: What does the source list for `Cn1c(=O)[nH]c2ccc(-c3cccc(C(=O)NC4CCn5ccnc5C4)c3)cc21` (centres unmarked) [Z36-MP5, 3-(3-methyl-2-oxo-2,3-dihydro-1H-benzo[d]imidazol-5-yl)-N-(5,6,7,8-tetrahydroimidazo[1,2-a]pyridin-7-yl)benzamide]?
A: Inhibition (%) by 1 μM Z36-MP5 (ABCB10): −6.14%; Inhibition (%) by 1 μM Z36-MP5 (ABCB7): 0.34%; Inhibition (%) by 1 μM Z36-MP5 (APRT): 0.39%; Inhibition (%) by 1 μM Z36-MP5 (ATIC): 4.08%; Inhibition (%) by 1 μM Z36-MP5 (CCT5): −2.48%; Inhibition (%) by 1 μM Z36-MP5 (CCT7): 10.91%; Inhibition (%) by 1 μM Z36-MP5 (FDPS): 29.13%; Inhibition (%) by 1 μM Z36-MP5 (GART; SEQ ID NO: 80, ATP BS): −8.85%; Inhibition (%) by 1 μM Z36-MP5 (GART; SEQ ID NO: 81, ATP BS): −7.56%; Inhibition (%) by 1 μM Z36-MP5 (GART; SEQ ID NO: 82, ATP BS): −2.13%; Inhibition (%) by 1 μM Z36-MP5 (HSP60): 11.39%; Inhibition (%) by 1 μM Z36-MP5 (HSP90AA): −1.29%; Inhibition (%) by 1 μM Z36-MP5 (KIAA0564): 11.07%; Inhibition (%) by 1 μM Z36-MP5 (NADSYN1): −2.19%; Inhibition (%) by 1 μM Z36-MP5 (PFAS): −4.58%; Inhibition (%) by 1 μM Z36-MP5 (PGK1): −4.49%; Inhibition (%) by 1 μM Z36-MP5 (PMVK): −5.60%; Inhibition (%) by 1 μM Z36-MP5 (PSMC1): −7.42%; Inhibition (%) by 1 μM Z36-MP5 (PSMC4): 13.36%; Inhibition (%) by 1 μM Z36-MP5 (RAD17): 15.62%; Inhibition (%) by 1 μM Z36-MP5 (RFC2): 1.52%; Inhibition (%) by 1 μM Z36-MP5 (RFC5): 2.11%; Inhibition (%) by 1 μM Z36-MP5 (SMC4): −7.11%
